# Laboratory results reported in publication PMC6364417, “Kinase inhibitor library screening identifies synergistic drug combinations effective in sensitive and resistant melanoma cells” (Journal of Experimental & Clinical Cancer Research : CR, 2019).
# Columns and labels:
# Assay in all cases: Kinase inhibitor library screening, PrestoBlue cell viability, 1 or 10 μM, 72 h
# 501Mel cells (parental) = details: 501Mel Parental, 72 h, in %
# Protocol: (§1) After 72 h of treatment, cell viability was assessed using the PrestoBlue Cell Viability Reagent (ThermoFisher Scientific). Measurements were performed with the CLARIOstar Monochromator microplate reader (BMG Labtech).
# (§2) Kinase inhibitor library screening. […] Each cell line was treated in its sensitive form (parental), and also as 2 resistant derivatives, which were made resistant to either Vemurafenib (XP) or Dabrafenib (GP). Drugs were added at 2 different concentrations, 1 and 10 μM, for 72 h and cell viability was assessed using the PrestoBlue Cell Viability assay. Results are depicted as % viability compared to untreated cells. Each cell line was analyzed at least in duplicate. […] (XLSX 95 kb)
# [1] = tested on: 501Mel-XP cells (Vemurafenib-resistant); details: for Cell viability in kinase inhibitor library screening, 501Mel XP, 1μΜ / Cell viability in kinase inhibitor library screening, 501Mel XP, 10μΜ: in %
# Protocol: as §1, §2
# [2] = tested on: IGR37-XP cells (Vemurafenib-resistant); details: for Cell viability in kinase inhibitor library screening, IGR37 XP, 10μΜ / Cell viability in kinase inhibitor library screening, IGR37 XP, 1μΜ / cell viability (kinase inhibitor library screening): 72 h, IGR37 XP; for Cell viability in kinase inhibitor library screening, IGR37 XP, 1μΜ: in %
# Protocol: as §1, §2
# [3] = tested on: A375-XP cells (Vemurafenib-resistant); details: for Cell viability in kinase inhibitor library screening, A375 XP, 1μΜ / Cell viability in kinase inhibitor library screening, A375 XP, 10μΜ / cell viability (kinase inhibitor library screening): 72 h, A375 XP
# Protocol: as §1, §2
# [4] = tested on: 501Mel-GP cells (Dabrafenib-resistant); details: for Cell viability in kinase inhibitor library screening, 501Mel GP, 1μΜ / Cell viability in kinase inhibitor library screening, 501Mel GP, 10μΜ / cell viability (kinase inhibitor library screening): 72 h, 501Mel GP; for Cell viability in kinase inhibitor library screening, 501Mel GP, 1μΜ / Cell viability in kinase inhibitor library screening, 501Mel GP, 10μΜ: in %
# Protocol: as §1, §2
# A375 cells (parental) = details: for Cell viability in kinase inhibitor library screening, A375 Parental, 10μΜ / Cell viability in kinase inhibitor library screening, A375 Parental, 1μΜ / cell viability (kinase inhibitor library screening): 72 h, A375 Parental
# Protocol: as §1, §2
# [5] = tested on: IGR37-GP cells (Dabrafenib-resistant)
# Protocol: as §1, §2
# [6] = tested on: A375-GP cells (Dabrafenib-resistant); details: for Cell viability in kinase inhibitor library screening, A375 GP, 1μΜ / Cell viability in kinase inhibitor library screening, A375 GP, 10μΜ / cell viability (kinase inhibitor library screening): 72 h, A375 GP
# Protocol: as §1, §2
# IGR37 cells (parental) = details: for Cell viability in kinase inhibitor library screening, IGR37 Parental, 1μΜ / Cell viability in kinase inhibitor library screening, IGR37 Parental, 10μΜ: in %
# Protocol: as §1, §2
SMILES,"Cell viability in kinase inhibitor library screening, 501Mel Parental, 10μΜ (501Mel cells (parental))","Cell viability in kinase inhibitor library screening, 501Mel XP, 1μΜ ([1]; 501Mel XP, 72 h)","Cell viability in kinase inhibitor library screening, 501Mel XP, 10μΜ ([1]; 501Mel XP, 10μΜ, 72 h)","Cell viability in kinase inhibitor library screening, IGR37 XP, 10μΜ ([2]; 10μΜ)","Cell viability in kinase inhibitor library screening, IGR37 XP, 1μΜ ([2]; 1μΜ)","Cell viability in kinase inhibitor library screening, A375 XP, 1μΜ ([3]; 1μΜ)","Cell viability in kinase inhibitor library screening, A375 XP, 10μΜ ([3]; 10μΜ)","Cell viability in kinase inhibitor library screening, 501Mel GP, 1μΜ ([4]; 1μΜ)","Cell viability in kinase inhibitor library screening, 501Mel GP, 10μΜ ([4]; 10μΜ)","Cell viability in kinase inhibitor library screening, A375 Parental, 10μΜ (A375 cells (parental); 10μΜ)","Cell viability in kinase inhibitor library screening, A375 Parental, 1μΜ (A375 cells (parental); 1μΜ)","Cell viability in kinase inhibitor library screening, IGR37 GP, 10μΜ ([5]; IGR37 GP, 10μΜ, 72 h)","Cell viability in kinase inhibitor library screening, A375 GP, 1μΜ ([6]; 1μΜ)","Cell viability in kinase inhibitor library screening, A375 GP, 10μΜ ([6]; 10μΜ)","Cell viability in kinase inhibitor library screening, IGR37 Parental, 1μΜ (IGR37 cells (parental); IGR37 Parental, 1μΜ, 72 h)","Cell viability in kinase inhibitor library screening, IGR37 Parental, 10μΜ (IGR37 cells (parental); IGR37 Parental, 72 h)",other results
Cc1nc(NC(=O)N2CCC[C@H]2C(N)=O)sc1-c1csc(C(C)(C)C)n1 [A66],85.2,102.8,65.7,41.5%,91.5,92.2,75.9,92.2,75.2,72.4,98.3,75%,93.1,64.2,,,"Cell viability in kinase inhibitor library screening, 501Mel Parental, 1μΜ (501Mel cells (parental); 1μΜ): 94.4; Cell viability in kinase inhibitor library screening, IGR37 GP, 1μΜ ([5]; IGR37 GP, 1μΜ, 72 h, in %): 91.2"
COc1ccc2c(Oc3ccc(NC(=O)c4c(C)n(CC(C)(C)O)n(-c5ccccc5)c4=O)nc3)ccnc2c1 [AMG458],,,,,,,,,,,,,,,,,"cell viability (kinase inhibitor library screening) ([1]; 501Mel XP, 10μΜ, 72 h): 51.7%; cell viability (kinase inhibitor library screening) ([2]; 1μΜ): 94.8%; cell viability (kinase inhibitor library screening) ([2]; 10μΜ): 55.7%; cell viability (kinase inhibitor library screening) (IGR37 cells (parental); IGR37 Parental, 1μΜ, 72 h): 107.7%; cell viability (kinase inhibitor library screening) ([3]; 1μΜ): 106.6%; cell viability (kinase inhibitor library screening) ([3]; 10μΜ): 96.2%; cell viability (kinase inhibitor library screening) ([4]; 1μΜ): 92.9%; cell viability (kinase inhibitor library screening) ([4]; 10μΜ): 70.8%; cell viability (kinase inhibitor library screening) (A375 cells (parental); 10μΜ): 96.0%; cell viability (kinase inhibitor library screening) (A375 cells (parental); 1μΜ): 106.7%; cell viability (kinase inhibitor library screening) ([5]; IGR37 GP, 1μΜ, 72 h): 97.0%; cell viability (kinase inhibitor library screening) ([5]; IGR37 GP, 10μΜ, 72 h): 88.1%; cell viability (kinase inhibitor library screening) ([6]; 1μΜ): 107.8%; cell viability (kinase inhibitor library screening) ([6]; 10μΜ): 90.9%"
Cc1ccccc1-n1c(Cn2cnc3c(N)ncnc32)nc2cccc(C)c2c1=O [IC-87114],,98.1,83.6,77.2%,93.3,103.8,102.9,100.1,87.1,90.3,98.8,91.5%,93.5,88.8,97.2,99.7,
FC(F)(F)c1ccc(/C=C/c2nc(COc3ccc(CCCCn4ccnn4)cc3)co2)cc1 [Mubritinib (TAK 165)],,,,,,,,,,,,,,,,,"cell viability, 501Mel XP, 1μΜ [1]: 92.8; cell viability, 501Mel XP, 10μΜ [1]: 81.6; cell viability, IGR37 XP, 1μΜ [2]: 98.3; cell viability, IGR37 XP, 10μΜ [2]: 81.5; cell viability, IGR37 Parental, 1μΜ (IGR37 cells (parental)): 98.7; cell viability, IGR37 Parental, 10μΜ (IGR37 cells (parental)): 100.1; cell viability, A375 XP, 1μΜ [3]: 94.9; cell viability, A375 XP, 10μΜ [3]: 98.4; cell viability, 501Mel GP, 10μΜ [4]: 95.8; cell viability, A375 Parental, 1μΜ (A375 cells (parental)): 94.8; cell viability, A375 Parental, 10μΜ (A375 cells (parental)): 91.7; cell viability, IGR37 GP, 1μΜ [5]: 99.8; cell viability, IGR37 GP, 10μΜ [5]: 95.3; cell viability, A375 GP, 1μΜ [6]: 93.7; cell viability, A375 GP, 10μΜ [6]: 94.7"
Cc1ccccc1-n1c(Cn2ncc3c(N)ncnc32)nc2cccc(C)c2c1=O [PIK-293],99.9,112.1,91.5,77.6%,103.2,106.1,104.4,,90.9,,,,97.7,99.7,105.2,107.6,
